# Assay results reported in patent US20180052105A1, “SULFANE SULFUR-SELECTIVE FLUORESCENT PROBE” (The University of Tokyo, priority 2015, published 2018).
# Legend:
# [1] = Absorption and fluorescence spectra of the probe after addition of Na2S4 in buffer; conditions: 1 μM probe, 0.1 M sodium phosphate buffer pH 7.4, 300 μM GSH
# Method: Na2S4 was added to compound 8 synthesized as described above, and the absorption spectrum (UV-1650PC, Shimadzu) and fluorescence spectrum (F-4500, Hitachi) were measured.
# (§1) The excitation wavelength was 470 nm.
# Na2S4 was added to the synthesized compound a1, compound a2, and compound 25, which was obtained by deprotecting compound a4, and the absorption and fluorescence spectra were measured.
# [2] = Reversibility of SSip-1 (in vitro assay in the presence of 5 mM of GSH); conditions: 1 μM probe, pH 7.4, 5 mM GSH
# Method: Reversibility of SSip-1 (In Vitro Assay in the Presence of 5 mM of GSH)
# The existence of a response to sulfane sulfur was studied in the presence of 5 mM of GSH, which is the GSH concentration in cells (FIG. 4).
# as §1
# [3] = Selectivity with H2S (addition of NaHS); conditions: 0.1 μm of SSip-1, pH 7.4, 300 μM GSH, 50 μM NaHS, excitation 470 nm
# From the text: as §1
# [4] = system: A549 cells; test: Live cell imaging (confocal microscope) with Na2S4 added; type: cell-based
# Method: The SSip-1 DA was introduced into A549 cells, and 500 μM of Na2S4 was added outside the cells under a microscope. The A549 cells were incubated for three hours by 10 μM of SSip-1 DA (containing 0.0003% Purulonic and 1% DMSO as a co-solvent). The excitation wavelength was 488 nm, and the emission wavelengths were 500-570 nm and 590-650 nm. […]
# [5] = system: cells; test: Localization in cells, co-staining with Lysotracker or Mitotracker; type: cell-based
# Method: The localization in cells was studied using compound a3. […] The cells were incubated for one hour by 10 μM of compound a3 and 50 nM of Lysotracker Deep red or 200 nM of Mitotracker Deep red in DMEM (containing 0.03% Purulonic and 0.1% DMSO as a co-solvent). Ex/Em=488 nm (laser intensity 20%)/500-540 nm (PMT1000) and 650 nm/670-700 nm (PMT600)
# [6] = A549 cells incubated 3 h with 10 μM SSip-1 DA, 500 μM Na2S4 added, excitation 488 nm
substance,measurement,setting,value
SSip-1,change in absorbance on the rhodamine side,[1]; after 50 μM Na2S4,decrease in absorbance on the rhodamine side
same,rise in fluorescence intensity,"[1]; after 50 μM Na2S4, excitation 470 nm",approximately 10 fold
same,fluorescence after addition of Na2S4,"[2]; 50 μM Na2S4, excitation 470 nm",the fluorescence rose after addition of Na2S4
same,reversibility (fluorescence on repeated Na2S4 addition),[2]; Na2S4 added again,showing reversibility
same,rise in fluorescence intensity with H2S donor,[3],virtually no rise in fluorescence intensity
same,intensity of the fluorescein-derived fluorescence wavelength region (500-570 nm),[4]; [6],increased
same,intensity of the rhodamine-derived fluorescence wavelength region (590-650 nm),[4]; [6],decreased slightly
same,time for fluorescence to decrease after washout,"[4]; A549 live cells, after washout of 250 μM Na2S4",about 20 minutes
same,time for fluorescence to rise after Na2S4 addition,"[4]; A549 live cells, repeated addition of 250 μM Na2S4",within one minute
same,merging with Lysotracker and Mitotracker,[5]; cells incubated 1 h with 10 μM compound a3 and 50 nM Lysotracker Deep red or 200 nM Mitotracker Deep red in DMEM,did not merge with Lysotracker and Mitotracker
same,localization in cells,[5]; in comparison to the localization when only SSip-1 was loaded,localized in the mitochondria
